Converted amounts (≈) assume the structure as drawn.
Experiments:
[1] = target: T1, recombinant form of Glutaminase 1 (GAC) (Homo sapiens, UniProt O94925); test: Recombinant Enzyme Assay (GAC coupled to GDH, NADH absorbance, no preincubation); assay type: biochemical; settings: no preincubation
Outline: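 GAC (4 nM) in Tris-HCl pH 8.0 with 150 mM K2HPO4, EDTA, BSA, DTT, plus 4 units/ml GDH and 4 mM ADP, without preincubation. Absorbance at 340 nm was read kinetically for 15 min at 20° C. Slopes (mAU/min) were compared with DMSO-only and control-compound wells on the same plate.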

[2] = target: T1, recombinant form of Glutaminase 1 (GAC); test: Recombinant Enzyme Assay - Time Dependence (60 minutes enzyme/compound preincubation); assay type: biochemical
Method: The enzyme/compound mix was sealed with sealing foil (USA Scientific) and allowed to incubate, with mild agitation, for 60 minutes at 20° C. Enzymatic reaction was started with the addition of 50 μL of substrate solution (50 mM Tris-HCl pH 8.0, 0.2 mM EDTA, 150 mM K2HPO4, 0.1 mg/ml BSA, 1 mM DTT, 20 mM L-glutamine, 2 mM NAD^+, and 10 ppm antifoam) and read in a Molecular Devices M5 plate reader at 20° C. The plate reader was configured to read absorbance (λ=340 nm) in kinetic mode for 15 minutes. Data was recorded as milli-absorbance units per minute and slopes were compared to a control compound and a DMSO-only control on the same plate. Compounds with slopes less than the DMSO control were considered inhibitors and plate variability was assessed using the control compound.

[3] = Solubility (18 hr vortex mixing at room temperature, filtration, HPLC); assay type: physicochemical; settings: thermodynamic from solid
Method: Ca. 1 mg portions of test article were combined with 120 μL solvent in wells of a 96×2 mL polypropylene plate. […] The contents of all wells were then filtered through a 0.45 μm GHP filter plate to yield clear filtrates. 5 μL of each filtrate was diluted into 100 μL DMF and vortex mixed to yield HPLC samples. Duplicate quantitation standards for each test article were prepared by diluting weighed portions of solid test article in measured volumes of DMF. 2 μL of each HPLC sample and quantitation standard were analyzed by HPLC using the method outlined in Table 5. Dissolved test article concentrations were calculated by peak area ratio against the appropriate quantitation standards.

[4] = read-out: GAC Delta N2 IC50 no preinc
[5] = read-out: GAC Delta N2 IC50 60 min preinc
[6] = read-out: GAC Delta N2 IC50 60 min

Structure (SMILES): COc1ccc(C(O)C(=O)Nc2nnc(CCCCc3nnc(NC(=O)C(O)c4ccc(OC)cc4)s3)s2)cc1 (centres unmarked) [Compound 320]
- IC50 [1, 4]: 0.4 µM

Structure (SMILES): C[C@H](O)C(=O)Nc1nnc(CCCCc2nnc(NC(=O)Cc3ccccc3)s2)s1 [Compound 321]
- IC50 [1, 4]: 2.5 µM

Structure (SMILES): C[C@@H](O)C(=O)Nc1nnc(CCCCc2nnc(NC(=O)Cc3ccccc3)s2)s1 [Compound 322]
- IC50 [1, 4]: 2.8 µM

Structure (SMILES): O=C(Cc1cccc2[nH]ccc12)Nc1nnc(CCCCc2nnc(NC(=O)Cc3cccc4[nH]ccc34)s2)s1 [Compound 323]
- IC50 [1, 4]: 0.056 µM

Structure (SMILES): COc1ccccc1-c1cccc(CC(=O)Nc2nnc(CCCCc3nnc(NC(=O)Cc4cccc(-c5ccccc5OC)c4)s3)s2)c1 [Compound 326]
- IC50 [1, 4]: > 20 µM

Structure (SMILES): CC(C)(C)OC(=O)Nc1cccc(CC(=O)Nc2nnc(CCCCc3nnc(NC(=O)Cc4cccc(NC(=O)OC(C)(C)C)c4)s3)s2)c1 [Compound 327]
- IC50 [1, 4]: > 20 µM

Structure (SMILES): O=C(Cc1cccc(-n2cccc2)c1)Nc1nnc(CCCCc2nnc(NC(=O)Cc3cccc(-n4cccc4)c3)s2)s1 [Compound 330]
- IC50 [1, 4]: > 20 µM

Structure (SMILES): O=C(Cc1cccc(-c2cccc(F)c2)c1)Nc1nnc(CCCCc2nnc(NC(=O)Cc3cccc(-c4cccc(F)c4)c3)s2)s1 [Compound 331]
- IC50 [1, 4]: > 20 µM

Structure (SMILES): O=C(CCN1CCOCC1)OC(C(=O)Nc1nnc(CCCCc2nnc(NC(=O)C(OC(=O)CCN3CCOCC3)c3cccc(Cl)c3)s2)s1)c1cccc(Cl)c1 (centres unmarked) [Compound 332]
- IC50 [1, 4]: 3.3 µM

Structure (SMILES): O=C(Cc1ccccc1)Nc1nnc(CCCCc2nnc(NC(=O)Cc3ccccc3CO)s2)s1 [Compound 333]
- IC50 [1, 4]: 0.1 µM

Structure (SMILES): O=C(Cc1ccccc1)Nc1ccc(CCCCc2nnc(NC(=O)C(OC(=O)CCN3CCOCC3)c3ccccc3)s2)nn1 (centres unmarked) [Compound 334]
- IC50 [1, 4]: 0.64 µM

Structure (SMILES): COc1ccc(Cl)c(CC(=O)Nc2nnc(CCCCc3nnc(NC(=O)Cc4ccccc4)s3)s2)c1F [Compound 343]
- IC50 [1, 4]: 0.16 µM

Structure (SMILES): O=C(Cc1ccccc1)Nc1nnc(CCCCc2nnc(NC(=O)Cc3c(Cl)ccc(O)c3F)s2)s1 [Compound 345]
- IC50 [1, 4]: 0.16 µM

Structure (SMILES): O=C(Cc1ccccc1)Nc1nnc(CCCCc2nnc(NC(=O)Cc3ccc(F)c(O)c3F)s2)s1 [Compound 346]
- IC50 [1, 4]: 0.12 µM

Structure (SMILES): O=C(Cc1ccccc1)Nc1nnc(CCSCCc2nnc(NC(=O)Cc3cccnc3)s2)s1 [Compound 347]
- IC50 [1, 4]: 0.22 µM

Structure (SMILES): CCOC(=O)Nc1nnc(CCSCCc2nnc(NC(=O)OCC)s2)s1 [Compound 356]
- IC50 [1, 4]: > 20 µM

Structure (SMILES): CC(=O)Nc1nnc(CCSCCc2nnc(N)s2)s1 [Compound 357]
- IC50 [1, 4]: > 20 µM

Structure (SMILES): O=C(CCN1CCOCC1)OC(C(=O)Nc1nnc(CCCCc2nnc(NC(=O)C(O)c3cccc(Cl)c3)s2)s1)c1cccc(Cl)c1 (centres unmarked) [Compound 358]
- IC50 [1, 4]: 1.4 µM

Structure (SMILES): O=C(Cc1ccccc1)Nc1nnc(CCSCCc2nnc(NC(=O)Cc3ccccn3)s2)s1 [Compound 359]
- IC50 [1, 4]: 0.38 µM

Structure (SMILES): O=C(Cc1ccncc1)Nc1nnc(CCSCCc2nnc(NC(=O)Cc3ccncc3)s2)s1 [Compound 361]
- IC50 [1, 4]: 1.8 µM

Structure (SMILES): O=C(Cc1cccc(Cn2cccn2)c1)Nc1nnc(CCCCc2nnc(NC(=O)Cc3cccc(Cn4cccn4)c3)s2)s1 [Compound 362]
- IC50 [1, 4]: 0.35 µM

Structure (SMILES): O=C(Cc1cccc(-n2ccnc2)c1)Nc1nnc(CCCCc2nnc(NC(=O)Cc3cccc(-n4ccnc4)c3)s2)s1 [Compound 363]
- IC50 [1, 4]: 0.065 µM

Structure (SMILES): CCOC(=O)Nc1nnc(CCCCc2nnc(NC(=O)Cc3ccccc3)s2)s1 [Compound 369]
- IC50 [1, 4]: 0.81 µM

Structure (SMILES): CC(C)COC(=O)Nc1nnc(CCCCc2nnc(NC(=O)Cc3ccccc3)s2)s1 [Compound 370]
- IC50 [1, 4]: 0.28 µM

Structure (SMILES): O=C(Cc1ccccc1)Nc1nnc(CCSCc2nnc(NC(=O)Cc3cccc(Cl)c3)s2)s1 [Compound 372]
- IC50 [1, 4]: 0.16 µM

Structure (SMILES): O=C(Cc1ccccc1)Nc1nnc(CCSCc2nnc(NC(=O)Cc3ccccn3)s2)s1 [Compound 373]
- IC50 [1, 4]: 0.17 µM

Structure (SMILES): O=C(Cc1ccccc1)Nc1nnc(CCCCc2nnc(NC(=O)OCc3ccccc3)s2)s1 [Compound 374]
- IC50 [1, 4]: 0.26 µM

Structure (SMILES): O=C(Cc1ccccc1)Nc1nnc(CCSCc2nnc(NC(=O)C(O)c3cccc(Cl)c3)s2)s1 (centres unmarked) [Compound 376]
- IC50 [1, 4]: 0.35 µM

Structure (SMILES): O=C(Cc1ccccc1)Nc1nnc(CCSCc2nnc(NC(=O)[C@@H](O)c3ccccc3)s2)s1 [Compound 377]
- IC50 [1, 4]: 0.28 µM

Structure (SMILES): O=C(Cc1ccccc1)Nc1nnc(CCSCc2nnc(NC(=O)Cc3cccc(OCCN4CCOCC4)c3)s2)s1 [Compound 378]
- IC50 [1, 4]: 0.22 µM

Structure (SMILES): COC(=O)Nc1nnc(CCCCc2nnc(NC(=O)Cc3ccccc3)s2)s1 [Compound 387]
- IC50 [1, 4]: 1.2 µM

Structure (SMILES): CCCCOC(=O)Nc1nnc(CCCCc2nnc(NC(=O)Cc3ccccc3)s2)s1 [Compound 388]
- IC50 [1, 4]: 0.21 µM

Structure (SMILES): O=C(Cc1ccccc1)Nc1ccc(CCCCc2nnc(NC(=O)C(OC(=O)CCN3CCOCC3)c3cccc(Cl)c3)s2)nn1 (centres unmarked) [Compound 389]
- IC50 [2, 5]: 0.084 µM

Structure (SMILES): O=C(Cc1ccccc1)Nc1nnc(CCCCc2nnc(NC(=O)Cc3cccc(OCCN4CCOCC4)c3)s2)s1 [Compound 390]
- IC50 [2, 5]: 0.042 µM

Structure (SMILES): CN(Cc1cccc(CC(=O)Nc2nnc(CCCCc3nnc(NC(=O)Cc4ccccc4)s3)s2)c1)C(=O)OC(C)(C)C [Compound 391]
- IC50 [2, 5]: 0.007 µM

Structure (SMILES): O=C(Cc1ccccc1)Nc1nnc(CCCCc2nnc(NC(=O)Cc3cccc(Cn4cccn4)c3)s2)s1 [Compound 392]
- IC50 [2, 5]: 0.014 µM

Structure (SMILES): CNCc1cccc(CC(=O)Nc2nnc(CCCCc3nnc(NC(=O)Cc4ccccc4)s3)s2)c1 [Compound 393]
- IC50 [2, 5]: 0.1 µM

Structure (SMILES): CN(C)Cc1cccc(CC(=O)Nc2nnc(CCCCc3nnc(NC(=O)Cc4ccccc4)s3)s2)c1 [Compound 394]
- IC50 [2, 6]: 0.088 µM

Structure (SMILES): CCCC(=O)OCN(C(=O)Cc1ccccc1)c1nnc(CCCCc2ccc(NC(=O)Cc3ccccc3)nn2)s1 [Compound 402]
- solubility at 18 h ([3]; 50 mM citrate buffer pH 2.3, 20 °C, aqueous buffer, 50 mM Cit pH 2.3, room temperature): < 4 µg/mL
- solubility at 18 h ([3]; 50 mM citrate buffer pH 3.3, 20 °C, aqueous buffer, 50 mM Cit pH 3.3, room temperature): < 4 µg/mL
- solubility at 18 h ([3]; 50 mM citrate buffer pH 4.4, 20 °C, aqueous buffer, 50 mM Cit pH 4.4, room temperature): < 4 µg/mL
- solubility at 18 h ([3]; 50 mM citrate buffer pH 5.4, 20 °C, aqueous buffer, 50 mM Cit pH 5.4, room temperature): < 4 µg/mL
- solubility at 18 h ([3]; 20 °C, aqueous buffer, PBS, room temperature): < 4 µg/mL
- solubility at 18 h ([3]; 20 °C, aqueous with cosolvent or surfactant or cyclodextrin, 10% CrEL/50 mM cit, room temperature): 157 µg/mL (≈ 268 µM)
- solubility at 18 h ([3]; 20 °C, aqueous with cosolvent or surfactant or cyclodextrin, 10% PS80/50 mM cit, room temperature): 153 µg/mL (≈ 261 µM)
- solubility at 18 h ([3]; 20 °C, aqueous with cosolvent or surfactant or cyclodextrin, 20% HPBCD/50 mM cit, room temperature): 56 µg/mL (≈ 95.4 µM)
- solubility at 18 h ([3]; 20 °C, aqueous with cosolvent or surfactant or cyclodextrin, 20% SBECD/50 mM cit, room temperature): 19 µg/mL (≈ 32.4 µM)
- solubility at 18 h ([3]; 20 °C, oil or lipid, Capryol 90, room temperature): 13700 µg/mL (≈ 23300 µM)
- solubility at 18 h ([3]; 20 °C, oil or lipid, Capryol PGMC, room temperature): 11200 µg/mL (≈ 19100 µM)
- solubility at 18 h ([3]; 20 °C, oil or lipid, Labrasol, room temperature): 31000 µg/mL (≈ 52900 µM)
- solubility at 18 h ([3]; 20 °C, oil or lipid, canola oil, room temperature): 529 µg/mL (≈ 902 µM)
- solubility at 18 h ([3]; 20 °C, organic solvent or mixture, EtOH, room temperature): 2960 µg/mL (≈ 5040 µM)
- solubility at 18 h ([3]; 20 °C, organic solvent or mixture, PEG400, room temperature): 30200 µg/mL (≈ 51400 µM)
- solubility at 18 h ([3]; 20 °C, organic solvent or mixture, PG, room temperature): 1360 µg/mL (≈ 2330 µM)
- solubility at 18 h ([3]; 20 °C, pH 1, simulated gastric fluid, 0.1M HCl, room temperature): < 4 µg/mL
- solubility at 18 h ([3]; 20 °C, pH 13, aqueous buffer, 0.1M NaOH, room temperature): < 4 µg/mL
- solubility at 18 h ([3]; 20 °C, saline or isotonic, 0.9% NaCl, room temperature): < 4 µg/mL
- solubility at 18 h ([3]; water, room temperature (ca. 20 C)): < 4 µg/mL

Structure (SMILES): Nc1ccc(CCCCc2nnc(NC(=O)C(O)c3cccc(Cl)c3)s2)nn1 (centres unmarked) [Compound 411]
- IC50 [2, 6]: 0.22 µM

Structure (SMILES): Cc1cccc(CNC(=O)Nc2nnc(CCCCc3nnc(NC(=O)Cc4ccccc4)s3)s2)c1 [Compound 417]
- IC50 [2, 6]: 0.056 µM

Structure (SMILES): CC(C)(C)OC(=O)NCc1cccc(CC(=O)Nc2nnc(CCCCc3ccc(NC(=O)C(O)c4cccc(Cl)c4)nn3)s2)c1 (centres unmarked) [Compound 422]
- IC50 [2, 6]: 0.007 µM

Structure (SMILES): NCc1cccc(CC(=O)Nc2nnc(CCCCc3nnc(NC(=O)Cc4ccccc4)s3)s2)c1 [Compound 437]
- IC50 [2, 6]: 0.07 µM

Structure (SMILES): CC(C)NC(=O)Nc1nnc(CCCCc2nnc(NC(=O)Cc3ccccc3)s2)s1 [Compound 438]
- IC50 [2, 6]: 0.74 µM

Structure (SMILES): O=C(CN1CCOCC1)NCc1ccc(CC(=O)Nc2nnc(CCCCc3ccc(NC(=O)Cc4ccccc4)nn3)s2)cc1 [Compound 442]
- IC50 [2, 6]: 0.007 µM

Structure (SMILES): O=C(Nc1ccc(CCCCc2nnc(NC(=O)C(O)c3cccc(Cl)c3)s2)nn1)C(O)c1cccc(Cl)c1 (centres unmarked) [Compound 446]
- IC50 [2, 6]: 0.011 µM

Structure (SMILES): O=C(Cc1cccnc1)Nc1nnc(CCSCCc2nnc(NC(=O)Cc3cccnc3)s2)s1 [Compound 638]
- IC50 ([1]; read-out: GAC Delta N2 IC50 no): 0.48 µM

Structure (SMILES): O=C(Cc1ccccc1)Nc1nnc(C[C@@H]2C[C@H]2Cc2nnc(NC(=O)Cc3ccccc3)s2)s1 [Compound 1035]
- IC50 [1, 4]: > 20 µM

Structure (SMILES): O=C(Cc1ccccc1)Nc1ccc(CCCCc2ccc(NC(=O)Cc3ccccc3)nn2)nn1 [Compound 1038]
- IC50 [1, 4]: 0.08 µM

From patent US8604016B2, “Heterocyclic inhibitors of glutaminase” (Calithera Biosciences Inc., priority 2011, dated 2013)
